Earlier results, collected in patent US6727243B1, “Compositions comprising cefuroxime axetil” (Biochemie Gesellschaft m.b.H., priority 1998, dated 2004).

Conditions: oral administration; after consumption of food versus fastened state

In the case of `CO/N=C(\C(=O)N[C@@H]1C(=O)N2C(C(=O)OC(C)OC(C)=O)=C(COC(N)=O)CS[C@H]12)c1ccco1` (stereo partly shown) [cefuroxime axetil, 1-acetoxyethyl ester of cefuroxime], the “food effect on bioavailability” value is given as “exhibit a food effect”.
